{"source": "patent US6469168B1", "about": "“Piperazinylalkylthiopyrimidine derivatives, pharmaceutical compositions containing the same, and a process for the preparation of the active substance” (EGIS Gyógyszergyár Rt., priority 1999, dated 2002)", "key": {"male SPRD rats": {"tested_on": "male SPRD rats", "assay": "Elevated plus-maze test", "type": "in vivo, rat", "details": "for minimal effective dose: Rattus norvegicus, po, 1 h, read-out: Minimum effective dose", "procedure": "1. Elevated Plus-Maze Test\nThe tests were carried out on male SPRD rats weighing 220 to 260 g. Each group of animal consisted of 8 to 10 pieces of rat. The substance to be examined or the vehicle (i.e. distilled water or a 0.4% solution of methylcellulose) was administered to the animals in a volume of 5 ml/kg as a solution or suspension per os 60 minutes prior to the test.\nThe elevated plus-maze consists of two open and two 40 cm wall enclosed arms of the same size (50×15 cm) arranged in the shape of a cross. The arms of the same type are opposite to each other. The junction of the four arms forms a central square area (15×15 cm). The apparatus is made of a wooden material elevated to a height of 50 cm and illuminated by a dim light from above. The essence of the method is that during the exploration of the apparatus, the animals spend considerably more time in the closed arms than in the open arms due to the natural fear from open space and height. […] Methods., 14, 149-167 (1985)]."}, "male NMRI mice": {"tested_on": "male NMRI mice", "assay": "Determination of the spontaneous motor activity", "details": "p.o., 60 minutes prior to the test, dose producing 50% of inhibition of motor activity", "procedure": "2. Determination of the Spontaneous Motor Activity\nFor the experiments, male NMRI mice weighing 20 to 25 g were used. Each treatment group consisted of 10 mice. The substance to be examined or the vehicle (i.e. a 0.4% solution of methylcellulose) was administered to the animals in a volume of 20 ml/kg as a suspension per os 60 minutes prior to the test. […] In case of anxiolytics, the value of the anxiolytic effect depends on the presence or absence of the sedative action (the latter is […]). For the experiments, an apparatus “digital motimeter” having 10 measuring places was used. The motion of the animals was indicated by the interruption of three parallel beams of infrared light at each measuring place, and the interruptions were recorded by the apparatus. The activity of one animal was determined at each measuring place. […] Int."}, "[1]": {"details": "p.o., 60 minutes prior to the test, male SPRD rats, time spent in and entries into open arms"}}, "note": "Structures can show the parent of a compound that is named as a salt. Where two headings read alike, the source gives them in different places."}
{"compound": "CN1C(=O)CN=C(c2ccccc2)c2cc(Cl)ccc21", "note": "[diazepam, 7-chloro-1,3-dihydro-1-methyl-5-phenyl-2H-1,4-benzodiazepine-2-one, reference compound]", "values": [{"measurement": "minimal effective dose", "setting": "male SPRD rats", "result": 1, "unit": "mg/kg"}]}
{"compound": "COc1ccccc1Cc1c(N)nc(SCCCN2CCNCC2)nc1N", "note": "[Example 10, 4,6-Diamino-2-[3-(1-piperazinyl)propylthio]-5-(2-methoxy-benzyl)pyrimidine trihydrochloride]", "values": [{"measurement": "minimal effective dose", "setting": "male SPRD rats; [1]", "result": 1, "unit": "mg/kg"}]}
{"compound": "COc1ccccc1Cc1c(N)nc(SCCN2CCN(CCCN(C)C)CC2)nc1N", "note": "(as salt: hydrochloride) (hydrate or solvate) [Example 26, 4,6-Diamino-2-{2-[4-(3-dimethylaminopropyl)-1-piperazinyl]-ethylthio}-5-(2-methoxybenzyl)pyrimidine tetrahydrochloride hydrate]", "values": [{"measurement": "melting point", "result": "262 to 264", "unit": "°C"}]}
{"compound": "CCOc1ccccc1Cc1c(N)nc(SCCCN2CCN(C=O)CC2)nc1N", "note": "[Example 7, 4,6-Diamino-2-[3-(4-formyl-1-piperazinyi)propylthio]-5-(2-ethoxybenzyl)pyrimidine]", "values": [{"measurement": "Minimum effective dose", "setting": "male SPRD rats; [1]", "result": "<1", "unit": "mg/kg"}, {"measurement": "ID50", "setting": "male NMRI mice", "result": ">100", "unit": "mg/kg"}]}
{"compound": "COc1ccccc1Cc1c(N)nc(SCCN2CCN(C(C)C)CC2)nc1N", "note": "(as salt: hydrochloride) (hydrate or solvate) [Example 5, 4,6-Diamino-2-[2-(4-isopropyl-1-piperazinyl)ethylthio]-5-(2-methoxybenzyl)pyrimidine trihydrochloride hydrate]", "values": [{"measurement": "melting point", "result": "253 to 255", "unit": "°C"}]}
{"compound": "COc1ccccc1Cc1c(N)nc(SCCCCN2CCNCC2)nc1N", "note": "[Example 18, 4,6-Diamino-2-[4-(1-piperazinyl)butylthio]-5-(2-methoxybenzyl)-pyrimidine trihydrochloride]", "values": [{"measurement": "minimal effective dose", "setting": "male SPRD rats; [1]", "result": 1, "unit": "mg/kg"}, {"measurement": "ID50", "setting": "male NMRI mice", "result": ">100", "unit": "mg/kg"}]}
{"compound": "COc1ccccc1Cc1c(N)nc(SCCN2CCNCC2)nc1N", "note": "[1 (besylate), 4,6-Diamino-5-(2-methoxybenzyl)-2-[2-(1-piperazinyl)ethylthio]-pyrimidine]", "values": [{"measurement": "Minimum effective dose", "setting": "male SPRD rats; [1]", "result": 1, "unit": "mg/kg"}, {"measurement": "ID50", "setting": "male NMRI mice", "result": ">90", "unit": "mg/kg"}]}
{"compound": "Nc1nc(SCCCN2CCNCC2)nc(N)c1Cc1ccc(Cl)cc1", "note": "[Example 17, 4,6-Diamino-2-[3-(1-piperazinyl)propylthio]-5-(4-chlorobenzyl)-pyrimidine trihydrochloride trihydrate]", "values": [{"measurement": "minimal effective dose", "setting": "male SPRD rats; [1]", "result": 1, "unit": "mg/kg"}, {"measurement": "ID50", "setting": "male NMRI mice", "result": ">100", "unit": "mg/kg"}]}
{"compound": "COc1ccccc1Cc1c(N)nc(SCCCCN2CCN(C)CC2)nc1N", "note": "(as salt: hydrochloride) (hydrate or solvate) [Example 8, 4,6-Diamino-2-[4-(4-methyl-1-piperazinyl)butylthio]-5-(2-methoxybenzyl)pyrimidine trihydrochloride hydrate]", "values": [{"measurement": "melting point", "result": 202, "unit": "°C"}]}
{"compound": "4,6-Diamino-2-[4-(4-methyl-1-piperazinyl)ethylthio]-5-(2-ethoxybenzyl)pyrimidine trihydrochloride hydrate [Example 13]", "values": [{"measurement": "Minimum effective dose", "setting": "male SPRD rats; [1]", "result": 1, "unit": "mg/kg"}]}
{"compound": "COc1ccccc1Cc1c(N)nc(SCCCCN2CCN(C)CC2)nc1N", "note": "[Example 8, 4,6-Diamino-2-[4-(4-methyl-1-piperazinyl)butylthio]-5-(2-methoxybenzyl)pyrimidine trihydrochloride hydrate]", "values": [{"measurement": "minimal effective dose", "setting": "male SPRD rats; [1]", "result": 3, "unit": "mg/kg"}, {"measurement": "ID50", "setting": "male NMRI mice", "result": ">100", "unit": "mg/kg"}]}
{"compound": "COc1ccccc1Cc1c(N)nc(SCCN2CCN(C(C)=O)CC2)nc1N", "note": "[Example 16, 4,6-Diamino-2-[2-(4-acetyl-1-piperazinyl)ethylthio]-5-(2-methoxybenzyl)pyrimidine]", "values": [{"measurement": "minimal effective dose", "setting": "male SPRD rats; [1]", "result": 3, "unit": "mg/kg"}, {"measurement": "ID50", "setting": "male NMRI mice", "result": ">100", "unit": "mg/kg"}, {"measurement": "melting point", "result": "198.5 to 199.5", "unit": "°C"}]}
{"compound": "COc1ccccc1Cc1c(N)nc(SCCCN2CCN(C=O)CC2)nc1N", "note": "[Example 9, 4,6-Diamino-2-[3-(4-formyl-1-piperazinyl)propylthio]-5-(2-methoxybenzyl)pyrimidine]", "values": [{"measurement": "minimal effective dose", "setting": "male SPRD rats; [1]", "result": 3, "unit": "mg/kg"}, {"measurement": "melting point", "result": "174 to 176", "unit": "°C"}]}
{"compound": "Nc1nc(SCCN2CCNCC2)nc(N)c1Cc1ccc(F)cc1", "note": "(as salt: hydrochloride) (hydrate or solvate) [Example 19, 4,6-Diamino-2-[2-(1-piperazinyl)ethylthio]-5-(4-fluorobenzyl)-pyrimidine trihydrochloride hydrate]", "values": [{"measurement": "melting point", "result": "168 to 170", "unit": "°C"}]}
{"compound": "COc1ccccc1Cc1c(N)nc(SCCCN2CCNCC2)nc1N", "note": "(as salt: hydrochloride) [Example 10, 4,6-Diamino-2-[3-(1-piperazinyl)propylthio]-5-(2-methoxy-benzyl)pyrimidine trihydrochloride]", "values": [{"measurement": "melting point", "result": "197 to 198", "unit": "°C"}]}
{"compound": "COc1ccccc1Cc1c(N)nc(SCCN2CCNCC2)nc1N", "note": "[Example 1 (fumarate), 4,6-Diamino-5-(2-methoxybenzyl)-2-[2-(1-piperazinyl)ethylthio]-pyrimidine]", "values": [{"measurement": "Minimum effective dose", "setting": "male SPRD rats; [1]", "result": 3, "unit": "mg/kg"}, {"measurement": "ID50", "setting": "male NMRI mice", "result": ">100", "unit": "mg/kg"}]}
{"compound": "COc1ccccc1Cc1c(N)nc(SCCCN2CCN(C(C)=O)CC2)nc1N", "note": "[Example 12, 4,6-Diamino-2-[3-(4-acetyl-1-piperazinyl)propylthio]-5-(2-methoxybenzyl)pyrimidine]", "values": [{"measurement": "minimal effective dose", "setting": "male SPRD rats; [1]", "result": 1, "unit": "mg/kg"}, {"measurement": "melting point", "result": "208 to 209", "unit": "°C"}]}
{"compound": "4,6-Diamino-2-[3-(1-piperazinyl)ethylthio]-5-(2-ethoxybenzyl)-pyrimidine trihydrochloride trihydrate [Example 14]", "values": [{"measurement": "Minimum effective dose", "setting": "male SPRD rats; [1]", "result": 1, "unit": "mg/kg"}]}
{"compound": "4,6-Diamino-5-(2-methoxybenzyl)-2-[2-(1-piperazinyl)ethylthio]-pyrimidine fumarate [Example 2]", "values": [{"measurement": "Minimum effective dose", "setting": "male SPRD rats; [1]", "result": 1, "unit": "mg/kg"}, {"measurement": "ID50", "setting": "male NMRI mice", "result": ">100", "unit": "mg/kg"}]}
{"compound": "COc1ccccc1Cc1c(N)nc(SCCCCN2CCNCC2)nc1N", "note": "(as salt: hydrochloride) [Example 18, 4,6-Diamino-2-[4-(1-piperazinyl)butylthio]-5-(2-methoxybenzyl)-pyrimidine trihydrochloride]", "values": [{"measurement": "melting point", "result": 255, "unit": "°C"}]}
{"compound": "Nc1nc(SCCN2CCNCC2)nc(N)c1Cc1ccc(F)cc1", "note": "[Example 19, 4,6-Diamino-2-[2-(1-piperazinyl)ethylthio]-5-(4-fluorobenzyl)-pyrimidine trihydrochloride hydrate]", "values": [{"measurement": "minimal effective dose", "setting": "male SPRD rats; [1]", "result": 0.01, "unit": "mg/kg"}, {"measurement": "ID50", "setting": "male NMRI mice", "result": ">100", "unit": "mg/kg"}]}
{"compound": "Nc1nc(SCCCN2CCNCC2)nc(N)c1Cc1ccc(Cl)cc1", "note": "(as salt: hydrochloride) (hydrate or solvate) [Example 17, 4,6-Diamino-2-[3-(1-piperazinyl)propylthio]-5-(4-chlorobenzyl)-pyrimidine trihydrochloride trihydrate]", "values": [{"measurement": "melting point", "result": 187, "unit": "°C"}]}
{"compound": "COc1ccccc1Cc1c(N)nc(SCCN2CCN(C(C)C)CC2)nc1N", "note": "[Example 5, 4,6-Diamino-2-[2-(4-isopropyl-1-piperazinyl)ethylthio]-5-(2-methoxybenzyl)pyrimidine trihydrochloride hydrate]", "values": [{"measurement": "minimal effective dose", "setting": "male SPRD rats; [1]", "result": 3, "unit": "mg/kg"}, {"measurement": "ID50", "setting": "male NMRI mice", "result": ">100", "unit": "mg/kg"}]}
{"compound": "4,6-Diamino-2-[2-/4-(2-dimethylaminoethyl)-1-piperazinyl/-ethyl-thio]-5-(2-methoxybenzyl)pyrimidine tetrahydrochloride dihydrate [Example 6]", "values": [{"measurement": "Minimum effective dose", "setting": "male SPRD rats; [1]", "result": 0.03, "unit": "mg/kg"}, {"measurement": "ID50", "setting": "male NMRI mice", "result": ">100", "unit": "mg/kg"}]}
{"compound": "CC(C)c1ccc(Cc2c(N)nc(SCCN3CCNCC3)nc2N)cc1", "note": "[Example 25, 4,6-Diamino-2-[2-(1-piperazinyl)ethylthio]-5-(4-isopropylbenzyl)-pyrimidine]", "values": [{"measurement": "melting point", "result": "63 to 64", "unit": "°C"}]}
{"compound": "4,6-Diamino-2-[2-(4-methyl-1-piperazinyl)propylthio]-5-(2-methoxybenzyl)pyrimidine trihydrochloride hydrate [Example 4]", "values": [{"measurement": "Minimum effective dose", "setting": "male SPRD rats; [1]", "result": 1, "unit": "mg/kg"}, {"measurement": "ID50", "setting": "male NMRI mice", "result": 32.8, "unit": "mg/kg"}]}
{"compound": "COc1ccccc1Cc1c(N)nc(SCCN2CCN(CCCN(C)C)CC2)nc1N", "note": "[Example 26, 4,6-Diamino-2-{2-[4-(3-dimethylaminopropyl)-1-piperazinyl]-ethylthio}-5-(2-methoxybenzyl)pyrimidine tetrahydrochloride hydrate]", "values": [{"measurement": "minimal effective dose", "setting": "male SPRD rats; [1]", "result": 0.3, "unit": "mg/kg"}, {"measurement": "ID50", "setting": "male NMRI mice", "result": ">100", "unit": "mg/kg"}]}
